Reference: patent publication US12497365B2, “4-pyridinyl formamide compound or derivative thereof, preparation method therefor, herbicidal composition and use thereof” (Qingdao Kingagroot Chemical Compound Co., Ltd., priority 2019, dated 2025)

Test system: Abutilon theophrasti
Assay: Weeding effect in post-emergence stage
Type: in vivo
Details: active ingredient 2000 g/ha, 3 weeks after application, fresh weight control rate
Text: (§1) The activity level criteria for plant damage (i.e., growth control rate) are as follows:
(§2) The above growth control rates are fresh weight control rates.
(§3) Experiment on weeding effect in post-emergence stage: monocotyledonous and dicotyledonous weed seeds and major crop seeds (wheat, corn, rice, soybean, cotton, oilseed rape, millet, sorghum) were placed in plastic pots filled with soil, then covered with 0.5-2 cm of soil, allowed to grow in a good greenhouse environment. After 2 weeks of sowing, the test plants were treated in the 2-3 leaf stage. The tested compounds of the present invention were respectively dissolved in acetone at the dosage of 2000, 1000, 500, 250, 125 g/ha, then added with Tween 80 and 1.5 liter/ha of emulsifiable concentrate of methyl oleate as synergist, diluted with a certain amount of water to obtain a solution with a certain concentration, and sprayed with a spray tower onto the plants. After the application, the plants were cultured for 3 weeks in the greenhouse, and then the experimental results were listed in Table 1.

SMILES | Weeding effect, activity level (growth control rate), Abutilon theophrasti
Cn1nnnc1NC(=O)c1ccnc(C2=CCN(C(=O)OC(C)(C)C)CC2)c1Cl [Compound 1-6] | 5 (Level 5: growth control rate is above 85%)
Cn1nnnc1NC(=O)c1ccnc(-c2cccc(C#N)c2)c1Cl [Compound 1-49] | 5 (Level 5: growth control rate is above 85%)
Cn1nnnc1NC(=O)c1ccnc(-c2ccc(N)cc2)c1Cl [Compound 1-37] | 5 (Level 5: growth control rate is above 85%)
Cc1[nH]ncc1-c1nccc(C(=O)Nc2nnnn2C)c1Cl [Compound 1-171] | 5 (Level 5: growth control rate is above 85%)
Cn1nnnc1NC(=O)c1ccnc(-c2cnc(Cl)nc2)c1Cl [Compound 1-157] | 5 (Level 5: growth control rate is above 85%)
Cn1nnnc1NC(=O)c1ccnc(-c2cncc(N)c2)c1Cl [Compound 1-145] | 5 (Level 5: growth control rate is above 85%)
Cn1nnnc1NC(=O)c1ccnc(-c2ncc(C#N)cn2)c1Cl [Compound 1-163] | 5 (Level 5: growth control rate is above 85%)
Cn1nnnc1NC(=O)c1ccnc(-c2ccc(C=O)o2)c1Cl [Compound 1-185] | 5 (Level 5: growth control rate is above 85%)
Cn1nnnc1NC(=O)c1ccnc(-c2cccc(Cl)c2F)c1Cl [Compound 1-93] | 5 (Level 5: growth control rate is above 85%)
Cn1nnnc1NC(=O)c1ccnc(-c2cc(F)cc(F)c2)c1Cl [Compound 1-65] | 5 (Level 5: growth control rate is above 85%)
Cc1nnc(-c2nccc(C(=O)Nc3nnnn3C)c2Cl)s1 [Compound 1-249] | 5 (Level 5: growth control rate is above 85%)
Cn1nnnc1NC(=O)c1ccnc(-c2ccc(F)cc2)c1S(C)(=O)=O [Compound 1-207] | 5 (Level 5: growth control rate is above 85%)
Cn1nnnc1NC(=O)c1ccnc(-c2cnc(C#N)nc2)c1Cl [Compound 1-159] | 5 (Level 5: growth control rate is above 85%)
Cn1nnnc1NC(=O)c1ccnc(-c2ccc(F)nc2)c1Cl [Compound 1-132] | 5 (Level 5: growth control rate is above 85%)
Cn1nnnc1NC(=O)c1ccnc(C2CCCCC2)c1Cl [Compound 1-4] | 5 (Level 5: growth control rate is above 85%)
CCCS(=O)(=O)c1nccc(C(=O)Nc2nnnn2C)c1Cl [Compound 1-2071] | 5 (Level 5: growth control rate is above 85%)
Cn1nnnc1NC(=O)c1ccnc(-c2cccc(F)c2)c1Cl [Compound 1-16] | 5 (Level 5: growth control rate is above 85%)
Cn1nnnc1NC(=O)c1ccnc(-c2ccc(I)cc2)c1Cl [Compound 1-25] | 5 (Level 5: growth control rate is above 85%)
COc1ccc(CSc2nccc(C(=O)Nc3nnnn3C)c2Cl)cc1 [Compound 1-2069] | 5 (Level 5: growth control rate is above 85%)
CCSc1c(C(=O)Nc2nnnn2C)ccnc1-c1ccc(F)cc1 [Compound 1-204] | 5 (Level 5: growth control rate is above 85%)
Cn1nnnc1NC(=O)c1ccnc(-c2cc(-c3ccccc3)cc(-c3ccccc3)c2)c1Cl [Compound 1-108] | 5 (Level 5: growth control rate is above 85%)

Test system: Amaranthus retroflexus L.
Assay: Weeding effect in post-emergence stage
Type: in vivo
Details: active ingredient 2000 g/ha, 3 weeks after application, fresh weight control rate
Text: as §1, §2, §3

SMILES | Weeding effect, activity level (growth control rate), Amaranthus retroflexus L.
Cn1nnnc1NC(=O)c1ccnc(C2=CCN(C(=O)OC(C)(C)C)CC2)c1Cl [Compound 1-6] | 5 (Level 5: growth control rate is above 85%)
Cn1nnnc1NC(=O)c1ccnc(-c2cccc(C#N)c2)c1Cl [Compound 1-49] | 5 (Level 5: growth control rate is above 85%)
Cn1nnnc1NC(=O)c1ccnc(-c2ccc(N)cc2)c1Cl [Compound 1-37] | 5 (Level 5: growth control rate is above 85%)
Cc1[nH]ncc1-c1nccc(C(=O)Nc2nnnn2C)c1Cl [Compound 1-171] | 5 (Level 5: growth control rate is above 85%)
Cn1nnnc1NC(=O)c1ccnc(-c2cnc(Cl)nc2)c1Cl [Compound 1-157] | 5 (Level 5: growth control rate is above 85%)
Cn1nnnc1NC(=O)c1ccnc(-c2cncc(N)c2)c1Cl [Compound 1-145] | 5 (Level 5: growth control rate is above 85%)
Cn1nnnc1NC(=O)c1ccnc(-c2ncc(C#N)cn2)c1Cl [Compound 1-163] | 5 (Level 5: growth control rate is above 85%)
Cn1nnnc1NC(=O)c1ccnc(-c2ccc(C=O)o2)c1Cl [Compound 1-185] | 5 (Level 5: growth control rate is above 85%)
Cn1nnnc1NC(=O)c1ccnc(-c2cccc(Cl)c2F)c1Cl [Compound 1-93] | 5 (Level 5: growth control rate is above 85%)
Cn1nnnc1NC(=O)c1ccnc(-c2cc(F)cc(F)c2)c1Cl [Compound 1-65] | 5 (Level 5: growth control rate is above 85%)
Cc1nnc(-c2nccc(C(=O)Nc3nnnn3C)c2Cl)s1 [Compound 1-249] | 5 (Level 5: growth control rate is above 85%)
Cn1nnnc1NC(=O)c1ccnc(-c2ccc(F)cc2)c1S(C)(=O)=O [Compound 1-207] | 5 (Level 5: growth control rate is above 85%)
Cn1nnnc1NC(=O)c1ccnc(-c2cnc(C#N)nc2)c1Cl [Compound 1-159] | 5 (Level 5: growth control rate is above 85%)
Cn1nnnc1NC(=O)c1ccnc(-c2ccc(F)nc2)c1Cl [Compound 1-132] | 5 (Level 5: growth control rate is above 85%)
Cn1nnnc1NC(=O)c1ccnc(C2CCCCC2)c1Cl [Compound 1-4] | 5 (Level 5: growth control rate is above 85%)
CCCS(=O)(=O)c1nccc(C(=O)Nc2nnnn2C)c1Cl [Compound 1-2071] | 5 (Level 5: growth control rate is above 85%)
Cn1nnnc1NC(=O)c1ccnc(-c2cccc(F)c2)c1Cl [Compound 1-16] | 5 (Level 5: growth control rate is above 85%)
Cn1nnnc1NC(=O)c1ccnc(-c2ccc(I)cc2)c1Cl [Compound 1-25] | 5 (Level 5: growth control rate is above 85%)
COc1ccc(CSc2nccc(C(=O)Nc3nnnn3C)c2Cl)cc1 [Compound 1-2069] | 5 (Level 5: growth control rate is above 85%)
CCSc1c(C(=O)Nc2nnnn2C)ccnc1-c1ccc(F)cc1 [Compound 1-204] | 5 (Level 5: growth control rate is above 85%)
Cn1nnnc1NC(=O)c1ccnc(-c2cc(-c3ccccc3)cc(-c3ccccc3)c2)c1Cl [Compound 1-108] | 5 (Level 5: growth control rate is above 85%)

Test system: Chenopodium album
Assay: Weeding effect in post-emergence stage
Type: in vivo
Details: active ingredient 2000 g/ha, 3 weeks after application, fresh weight control rate
Text: as §1, §2, §3

SMILES | Weeding effect, activity level (growth control rate), Chenopodium album
Cn1nnnc1NC(=O)c1ccnc(C2=CCN(C(=O)OC(C)(C)C)CC2)c1Cl [Compound 1-6] | 5 (Level 5: growth control rate is above 85%)
Cn1nnnc1NC(=O)c1ccnc(-c2cccc(C#N)c2)c1Cl [Compound 1-49] | 5 (Level 5: growth control rate is above 85%)
Cn1nnnc1NC(=O)c1ccnc(-c2ccc(N)cc2)c1Cl [Compound 1-37] | 5 (Level 5: growth control rate is above 85%)
Cc1[nH]ncc1-c1nccc(C(=O)Nc2nnnn2C)c1Cl [Compound 1-171] | 5 (Level 5: growth control rate is above 85%)
Cn1nnnc1NC(=O)c1ccnc(-c2cnc(Cl)nc2)c1Cl [Compound 1-157] | 5 (Level 5: growth control rate is above 85%)
Cn1nnnc1NC(=O)c1ccnc(-c2cncc(N)c2)c1Cl [Compound 1-145] | 5 (Level 5: growth control rate is above 85%)
Cn1nnnc1NC(=O)c1ccnc(-c2ncc(C#N)cn2)c1Cl [Compound 1-163] | 5 (Level 5: growth control rate is above 85%)
Cn1nnnc1NC(=O)c1ccnc(-c2ccc(C=O)o2)c1Cl [Compound 1-185] | 5 (Level 5: growth control rate is above 85%)
Cn1nnnc1NC(=O)c1ccnc(-c2cccc(Cl)c2F)c1Cl [Compound 1-93] | 5 (Level 5: growth control rate is above 85%)
Cn1nnnc1NC(=O)c1ccnc(-c2cc(F)cc(F)c2)c1Cl [Compound 1-65] | 5 (Level 5: growth control rate is above 85%)
Cc1nnc(-c2nccc(C(=O)Nc3nnnn3C)c2Cl)s1 [Compound 1-249] | 5 (Level 5: growth control rate is above 85%)
Cn1nnnc1NC(=O)c1ccnc(-c2ccc(F)cc2)c1S(C)(=O)=O [Compound 1-207] | 5 (Level 5: growth control rate is above 85%)
Cn1nnnc1NC(=O)c1ccnc(-c2cnc(C#N)nc2)c1Cl [Compound 1-159] | 5 (Level 5: growth control rate is above 85%)
Cn1nnnc1NC(=O)c1ccnc(-c2ccc(F)nc2)c1Cl [Compound 1-132] | 5 (Level 5: growth control rate is above 85%)
Cn1nnnc1NC(=O)c1ccnc(C2CCCCC2)c1Cl [Compound 1-4] | 5 (Level 5: growth control rate is above 85%)
CCCS(=O)(=O)c1nccc(C(=O)Nc2nnnn2C)c1Cl [Compound 1-2071] | 5 (Level 5: growth control rate is above 85%)
Cn1nnnc1NC(=O)c1ccnc(-c2cccc(F)c2)c1Cl [Compound 1-16] | 5 (Level 5: growth control rate is above 85%)
Cn1nnnc1NC(=O)c1ccnc(-c2ccc(I)cc2)c1Cl [Compound 1-25] | 5 (Level 5: growth control rate is above 85%)
COc1ccc(CSc2nccc(C(=O)Nc3nnnn3C)c2Cl)cc1 [Compound 1-2069] | 5 (Level 5: growth control rate is above 85%)
CCSc1c(C(=O)Nc2nnnn2C)ccnc1-c1ccc(F)cc1 [Compound 1-204] | 5 (Level 5: growth control rate is above 85%)
Cn1nnnc1NC(=O)c1ccnc(-c2cc(-c3ccccc3)cc(-c3ccccc3)c2)c1Cl [Compound 1-108] | 5 (Level 5: growth control rate is above 85%)

Test system: Descurainia sophia
Assay: Weeding effect in post-emergence stage
Type: in vivo
Details: active ingredient 2000 g/ha, 3 weeks after application, fresh weight control rate
Text: as §1, §2, §3

SMILES | Weeding effect, activity level (growth control rate), Descurainia sophia
Cn1nnnc1NC(=O)c1ccnc(C2=CCN(C(=O)OC(C)(C)C)CC2)c1Cl [Compound 1-6] | 5 (Level 5: growth control rate is above 85%)
Cn1nnnc1NC(=O)c1ccnc(-c2cccc(C#N)c2)c1Cl [Compound 1-49] | 5 (Level 5: growth control rate is above 85%)
Cn1nnnc1NC(=O)c1ccnc(-c2ccc(N)cc2)c1Cl [Compound 1-37] | 5 (Level 5: growth control rate is above 85%)
Cc1[nH]ncc1-c1nccc(C(=O)Nc2nnnn2C)c1Cl [Compound 1-171] | 5 (Level 5: growth control rate is above 85%)
Cn1nnnc1NC(=O)c1ccnc(-c2cnc(Cl)nc2)c1Cl [Compound 1-157] | 5 (Level 5: growth control rate is above 85%)
Cn1nnnc1NC(=O)c1ccnc(-c2cncc(N)c2)c1Cl [Compound 1-145] | 5 (Level 5: growth control rate is above 85%)
Cn1nnnc1NC(=O)c1ccnc(-c2ncc(C#N)cn2)c1Cl [Compound 1-163] | 5 (Level 5: growth control rate is above 85%)
Cn1nnnc1NC(=O)c1ccnc(-c2ccc(C=O)o2)c1Cl [Compound 1-185] | 5 (Level 5: growth control rate is above 85%)
Cn1nnnc1NC(=O)c1ccnc(-c2cccc(Cl)c2F)c1Cl [Compound 1-93] | 5 (Level 5: growth control rate is above 85%)
Cn1nnnc1NC(=O)c1ccnc(-c2cc(F)cc(F)c2)c1Cl [Compound 1-65] | 5 (Level 5: growth control rate is above 85%)
Cc1nnc(-c2nccc(C(=O)Nc3nnnn3C)c2Cl)s1 [Compound 1-249] | 5 (Level 5: growth control rate is above 85%)
Cn1nnnc1NC(=O)c1ccnc(-c2ccc(F)cc2)c1S(C)(=O)=O [Compound 1-207] | 5 (Level 5: growth control rate is above 85%)
Cn1nnnc1NC(=O)c1ccnc(-c2cnc(C#N)nc2)c1Cl [Compound 1-159] | 5 (Level 5: growth control rate is above 85%)
Cn1nnnc1NC(=O)c1ccnc(-c2ccc(F)nc2)c1Cl [Compound 1-132] | 5 (Level 5: growth control rate is above 85%)
Cn1nnnc1NC(=O)c1ccnc(C2CCCCC2)c1Cl [Compound 1-4] | 5 (Level 5: growth control rate is above 85%)
CCCS(=O)(=O)c1nccc(C(=O)Nc2nnnn2C)c1Cl [Compound 1-2071] | 5 (Level 5: growth control rate is above 85%)
Cn1nnnc1NC(=O)c1ccnc(-c2cccc(F)c2)c1Cl [Compound 1-16] | 5 (Level 5: growth control rate is above 85%)
Cn1nnnc1NC(=O)c1ccnc(-c2ccc(I)cc2)c1Cl [Compound 1-25] | 5 (Level 5: growth control rate is above 85%)
COc1ccc(CSc2nccc(C(=O)Nc3nnnn3C)c2Cl)cc1 [Compound 1-2069] | 5 (Level 5: growth control rate is above 85%)
CCSc1c(C(=O)Nc2nnnn2C)ccnc1-c1ccc(F)cc1 [Compound 1-204] | 5 (Level 5: growth control rate is above 85%)
Cn1nnnc1NC(=O)c1ccnc(-c2cc(-c3ccccc3)cc(-c3ccccc3)c2)c1Cl [Compound 1-108] | 5 (Level 5: growth control rate is above 85%)
